From publication PMC11267923, “Metagenome-derived SusD-homologs affiliated with Bacteroidota bind to synthetic polymers” (Applied and Environmental Microbiology, 2024)

Key:
SusD1 (SusD1Δ1–22) = molecular target: T1, SusD1 (SusD1Δ1–22) (Prevotella sp. Sc00044, UniProt W5QTG3); assay: SPR, Biacore T200, His-captured protein, single-cycle kinetics, […] fit; assay type: binding
T1 construct: gene susD; Sec/SPII signal peptide 1-22 removed; C-terminal His6 from pET21a(+); expressed in E. coli BL21(DE3)
T1 sequence (W5QTG3 23-580 limits assumed, stated change not applied): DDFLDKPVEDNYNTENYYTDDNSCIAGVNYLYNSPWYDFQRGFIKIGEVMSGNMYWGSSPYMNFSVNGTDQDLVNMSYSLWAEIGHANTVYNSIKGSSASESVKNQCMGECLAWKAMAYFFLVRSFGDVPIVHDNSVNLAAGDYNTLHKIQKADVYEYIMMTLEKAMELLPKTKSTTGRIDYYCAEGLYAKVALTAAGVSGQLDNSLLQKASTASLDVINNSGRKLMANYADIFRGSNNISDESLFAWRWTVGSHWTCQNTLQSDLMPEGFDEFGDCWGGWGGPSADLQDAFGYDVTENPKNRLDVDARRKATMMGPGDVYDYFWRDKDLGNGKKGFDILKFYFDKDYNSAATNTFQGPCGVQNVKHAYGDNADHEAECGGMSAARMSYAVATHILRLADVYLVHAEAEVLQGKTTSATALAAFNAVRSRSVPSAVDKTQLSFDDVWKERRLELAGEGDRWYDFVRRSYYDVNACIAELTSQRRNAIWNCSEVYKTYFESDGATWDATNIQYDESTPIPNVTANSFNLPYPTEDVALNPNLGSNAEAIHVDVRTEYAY

[1] = molecular target: T2, SusD38489 (SusD38489Δ1–25); assay: as above; set-up: species or system uncultured Bacteroidota bacterium; settings: 25 °C; 0.1 M potassium phosphate pH 7 reference buffer; one binding site
T2 construct: gene susD; Sec/SPII signal peptide 1-25 removed; C-terminal His6 from pET21a(+); expressed in E. coli BL21(DE3)

**Q.** `O=C(OCCO)c1ccc(C(=O)OCCO)cc1` [BHET, Bis(2-Hydroxyethyl) terephthalate] was tested. Which Kd (SusD1 (SusD1Δ1–22)) did it give?
**A.** Its Kd is 0.3 nM.

**Q.** And the Kd [1]?
**A.** Its Kd is 10 nM.
